# Source: patent US6921531B2, “Administering bifunctional molecules containing a drug moiety and presenter protein ligand for therapy” (The Board of Trustees of the Leland Stanford Junior …, priority 1998, dated 2005)
# “Also recorded” adds a separate entry of the source.
# Tests used:
# [1] = target: T1, FKBP52 (Homo sapiens, UniProt Q02790); experiment: Binding constants (Kd) for FKBP52, isothermal titration calorimetry
# T1 construct: His6 (N); made in house
# T1 sequence (Q02790 1-459): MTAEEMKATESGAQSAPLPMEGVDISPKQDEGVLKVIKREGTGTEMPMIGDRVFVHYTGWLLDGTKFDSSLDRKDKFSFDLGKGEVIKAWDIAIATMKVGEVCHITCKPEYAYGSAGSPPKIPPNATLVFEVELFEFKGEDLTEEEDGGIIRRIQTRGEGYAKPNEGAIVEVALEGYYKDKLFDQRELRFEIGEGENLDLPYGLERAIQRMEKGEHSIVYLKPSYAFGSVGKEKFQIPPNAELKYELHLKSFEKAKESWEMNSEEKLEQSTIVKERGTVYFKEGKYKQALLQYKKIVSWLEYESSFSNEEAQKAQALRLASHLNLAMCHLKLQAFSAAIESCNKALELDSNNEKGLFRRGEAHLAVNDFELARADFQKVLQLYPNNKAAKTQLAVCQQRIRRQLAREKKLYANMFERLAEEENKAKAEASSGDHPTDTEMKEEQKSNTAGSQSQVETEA
# Source text: SLF was synthesized according to the procedures of Holt et al. [J. Am. Chem. Soc. 1993, 115, 9925]. SLF was coupled to the N-terminus of the resin-bound protected pYEEI peptide using PyBOP. The heterodimeric SLFpYEEI was deprotected and cleaved from the Novasyn TGT resin (Calbiochem-Novabiochem, San Diego, Ca.) using 25% trifluoroacetic acid and 2.5% triisopropyl silane in methylene chloride and the desired product was isolated using reverse phase HPLC. C. […] Recombinant FKBP12 was expressed as a GST fusion protein and bound to glutathione beads (Pharmacia). Using thrombin (Sigma) to cleave the GST-FKBP12 fusion protein at a thrombin cleavage site in the linker between GST and FKBP12, recombinant FKBP12 could be released from the glutathione beads where GST remained bound. FKBP52 was expressed with a tag of six histidine residues at its N-terminus (pET28c expression vector, Novagen). The recombinant protein was bound via the histidine tag to Ni^2+ NTA agarose beads (Qiagen), washed extensively and eluted with imidazole. […]
# SLFpYEEI and FKpYEEI are bifunctional molecules that can bind FKBP12 and FKBP52 as well as the Fyn SH2 domain (FIG. 2). The binding constants (Kd values) of the bifunctional molecules for the three proteins were measured using isothermal titration calorimetry (ITC) (Table 1).
# [2] = system: PLC SH2 domain; experiment: Competition binding assay of radioactive PLC SH2 domain to pYEEI beads; conditions: 1.0-1.5 μM ligand plus FKBP12 (0.5-4.0 μM or 2.0 μM)
# Source text: The pYEEI peptide was coupled to Affi-Gel 10 beads (Biorad) via its amino-group. The Fyn, Lck and PLC SH2 domains were expressed in bacteria as GST fusion proteins. The linker between the GST protein and the SH2 domain contained a thrombin cleavage site and a protein kinase A (PKA) phosphorylation site. The fusion protein on glutathione beads was radioactively labeled at the PKA phosphorylation site using PKA (Sigma). After extensive washing of the beads, the radioactive SH2 domain was released by cleavage with thrombin (Sigma). In a typical binding assay, 7.5 L of a 1:1 peptide bead slurry were incubated with the radioactive SH2 domain (200 nM) for 2 hours in 100 L of binding buffer (20 mM Tris pH7.2; 150 mM NaCl). In order to separate the radioactive protein bound to the beads, the binding reaction was transfered into a PCR tube (USA Scientific Plastic), whose bottom had been punctured with a 26gauge needle. The PCR tube was placed in a 0.5 mL Eppendorf tube which in turn was placed in a regular 1.5 mL Eppendorf tube. The tubes were spun for 1 second at maximal speed in an Eppendorf centrifuge resulting in the separation of the beads remaining in the PCR tube and the supernatant, which was collected in the 0.5 ml Eppendorf tube. The beads were resuspended in […] PBS and the radioactivity was counted in a liquid scintillation counter after addition of 3 ml scintillation fluid. The radioactivity remaining in the 100 L supernatant was counted in the same way. It was determined that under the conditions described 65% Fyn, 25% PLC and 15%Lck SH2 domain were bound to the beads. […]
# The binary complex of FKpYEEI and FKBP 12 has the same affinity for the Fyn SH2 domain as free FKpYEEI (see FIG. 7). […] The binding reactions were rotated at room temperature for 2 hours, centrifuged and analysed as described above.
# In this assay, in 100 L binding reactions, radioactively labeled PLC SH2 domain (400 nM) was incubated with 7.5 L of a 1:1 pYEEI bead slurry. […] The binding reactions were rotated at room temperature for 2 hours, centrifuged and analysed as described above. […]
SMILES,Kd [1],Effect of FKBP12 on affinity for the PLC SH2 domain [2]
CC[C@H](C)[C@H](NC(=O)[C@H](CCC(=O)O)NC(=O)[C@H](CCC(=O)O)NC(=O)[C@H](Cc1ccc(OP(=O)(O)O)cc1)NC(=O)OCC[C@@H]1/C=C(\C)C[C@H](C)C[C@H](OC)[C@H]2O[C@@](O)(C(=O)C(=O)N3CCCC[C@H]3C(=O)O[C@H](/C(C)=C/[C@@H]3CC[C@@H](O)[C@H](OC)C3)[C@H](C)[C@@H](O)CC1=O)[C@H](C)C[C@@H]2OC)C(=O)O [FKpYEEI],150 nM,decreased affinity for the PLC SH2 domain; also recorded: reducing binding to the PLC SH2 domain
CC[C@H](C)[C@H](NC(=O)[C@H](CCC(=O)O)NC(=O)[C@H](CCC(=O)O)NC(=O)[C@H](Cc1ccc(OP(=O)(O)O)cc1)NC(=O)COc1cccc([C@@H](CCc2ccc(OC)c(OC)c2)OC(=O)[C@@H]2CCCCN2C(=O)C(=O)C(C)(C)CC)c1)C(=O)O [SLFpYEEI],,reduced binding
